Measured values as given in patent US12435032B2, “L-γ-methyleneglutamine compounds and methods of use” (University of Mississippi, priority 2019, dated 2025).
Entries after “also recorded” stand apart in the source; their conditions may differ. Read-outs that look alike come from different tables or passages of the source.

Tests used:
[1] = system: triple-negative MDA-MB-231 breast cancer cells; experiment: cells; conditions: Homo sapiens, read-out: Cytotoxicity EC50
[2] = system: SK-BR-3 breast cancer cells; experiment: Cytotoxicity (cell death, propidium iodide) in SK-BR-3 cells; type: cell-based; conditions: for EC50: Homo sapiens, dose-response 0.32-320 μM
[3] = system: MCF-7 (ER+/PR+/HER2−) breast cancer cells; experiment: Growth inhibition of MCF-7 cells (Hoechst 33342 fluorescence vs non-treated wells); type: cell-based; conditions: Homo sapiens, dose-response 0.32-320 μM
Description: (§1) Olaparib was chosen because it is one of a few FDA-approved chemotherapeutics for triple-negative breast cancer.
(§2) Cells were incubated for 15 minutes at 37° C.

[4] = system: SK-BR-3 (ER−/PR−/HER2+) breast cancer cells; experiment: Growth inhibition of SK-BR-3 cells; type: cell-based; conditions: Homo sapiens, dose-response 0.32-320 μM
Description: as §1, §2

[5] = system: MCF-10A non-cancerous breast cells; experiment: Growth inhibition of MCF-10A cells (negative control line); type: cell-based; conditions: Homo sapiens, dose-response 0.32-320 μM
Description: as §1, §2

[6] = system: MCF-7 breast cancer cells; experiment: Cytotoxicity (cell death, propidium iodide) in MCF-7 cells; type: cell-based; conditions: for EC50: Homo sapiens, MCF7, dose-response 0.32-320 μM, read-out: Cytotoxicity EC50
[7] = system: triple-negative MDA-MB-231 breast cancer cells; experiment: Growth inhibition of MDA-MB-231 cells; type: cell-based; conditions: for IC50: Homo sapiens; for IC50 / Growth Inhibition IC50: dose-response 0.32-320 μM
Description: as §1, §2

[8] = Cytotoxicity (cell death, propidium iodide) in MCF-10A cells; type: cell-based; conditions: human, MCF-10A non-cancerous breast cells
Description: (§3) To assess the selectivity of cytotoxicity for cancer cells, all drugs and compounds were screened against MCF-10A, non-cancerous breast cells.
as §2

[9] = system: newborn rat spinal cord; conditions: cited from earlier work
[10] = system: central nervous system (CNS); conditions: cited from earlier work
[11] = system: MCF-10A non-cancerous breast cells; experiment: Cytotoxicity (cell death, propidium iodide) in MCF-10A cells; type: cell-based
Description: as §3, §2

[12] = MCF7, 24 h, MCF-7, 24 h exposure
[13] = MCF7, 72 h, MCF-7, 72 h exposure
[14] = SK-BR-3, 72 h / after the first 24 h

Compound | EC50 ([1]; MDA-MB-231, 24 h) [µM] | EC50 ([1]; MDA-MB-231, 72 h) [µM] | EC50 ([2]; SK-BR-3, 24 h exposure) [µM] | EC50 ([2]; SK-BR-3, 72 h exposure) [µM] | cytotoxicity EC50 ([2]; SK-BR-3, at 24 or 72 h) | IC50 [3, 12] [µM] | IC50 [3, 13] [µM] | IC50 ([4]; SK-BR-3, 24 h exposure) [µM] | IC50 ([4]; SK-BR-3, 72 h exposure) [µM] | IC50 ([5]; 24 h exposure) [µM] | IC50 ([5]; 72 h exposure) [µM] | EC50 ([6]; MCF-7, 24 h exposure) [µM] | EC50 ([6]; MCF-7, 72 h exposure) [µM] | IC50 ([7]; MDA-MB-231, 24 h exposure) [µM] | IC50 ([7]; MDA-MB-231, 72 h exposure) [µM] | Growth Inhibition IC50 ([7]; MDA-MB-231, 24 h exposure) | Growth Inhibition IC50 ([7]; MDA-MB-231, 72 h exposure) | EC50 at 24 h ([8]; 24 h exposure) [µM] | EC50 at 24 h ([8]; head prints 24 h) [µM] | cytotoxicity EC50 [2, 14] | further results
C=C(C[C@H](N)C(=O)O)C(N)=O [Compound 1, (S)-2-amino-4-carbamoylpent-4-enoic acid] | 8.9 | 320 | 0.2 | 2 | commensurate EC50's at 24 or 72 h | 459 | 609 | 7.9 | 11.3 | > 1000 | > 1000 | 152 | 3 | 141 | 585 | potency that was commensurate to tamoxifen | longer-term performance commensurate to olaparib; also recorded: as efficacious as olaparib | > 1000 | > 1000 | – | EC50 for MCF-7 cytotoxicity ([6]; MCF-7, 72 h exposure): significantly lower than tamoxifen
C=C(C[C@H](N)C(=O)O)C(=O)O [Compound 2, L-γ-methyleneglutamic acid] | – | – | – | – | – | – | – | – | – | – | – | – | – | – | – | – | – | – | – | – | potency relative to L-glutamate as a depolarizing agent [9]: 10 times; central nervous system (CNS) inhibitory activity [10]: strong
C=C(C[C@H](N)C(=O)O)C(=O)NCc1ccccc1 [Compound 4, (S)-2-amino-4-(benzylcarbamoyl) pent-4-enoic acid] | 374 | 980 | 0.1 | > 1000 | – | > 1000 | 197 | 74.2 | 0.6 | > 1000 | > 1000 | 664 | 218 | 481 | 649 | – | poorer potency than olaparib | > 1000 | 563 | much reduced toxicity | cytotoxicity EC50 ([11]; after the first 24 h): EC50 in the micromolar range
C=C(C[C@H](N)C(=O)O)C(=O)NCc1ccc(F)cc1 [Compound 5, (S)-2-amino-4-((4-fluorobenzyl)carbamoyl)pent-4-enoic acid] | 265 | 262 | > 1000 | 0.4 | – | 590 | 85.3 | 3.9 | 4.5 | > 1000 | > 1000 | > 1000 | 54.5 | 350 | 339 | – | – | 796 | > 1000 | cell death was apparent | cytotoxicity ([2]; SK-BR-3, 24 h exposure): devoid of toxicity; growth inhibition potency compared with olaparib ([7]; MDA-MB-231, throughout testing (24 h and 72 h)): equipotent to olaparib; cytotoxicity EC50 ([11]; within the first 24 h): EC50 below the millimolar range
C=C(C[C@H](N)C(=O)O)C(=O)NCc1ccc([N+](=O)[O-])cc1 [Compound 6, (S)-2-amino-4-((4-nitrobenzyl)carbamoyl) pent-4-enoic acid] | 150 | 270 | 0.3 | 0.4 | commensurate EC50's at 24 or 72 h | 457 | 534 | 12.8 | 3.2 | > 1000 | > 1000 | 485 | 20.4 | 216 | 368 | potency that was commensurate to tamoxifen | longer-term performance commensurate to olaparib; also recorded: as efficacious as olaparib | > 1000 | > 1000 | – | –
